# Reference: ChEMBL document CHEMBL4507269, “Data for DCP probe BAY-386” (2021)
# How the values were obtained:
# [1] = target: T1, Muscarinic acetylcholine receptor M1 (Homo sapiens) (UniProt P11229); assay: M1 (h) Eurofins-Cerep Cellular and Nuclear Receptor Functional Assays; conditions: Compound concentration 10.0 uM
# T1 sequence (whole entry): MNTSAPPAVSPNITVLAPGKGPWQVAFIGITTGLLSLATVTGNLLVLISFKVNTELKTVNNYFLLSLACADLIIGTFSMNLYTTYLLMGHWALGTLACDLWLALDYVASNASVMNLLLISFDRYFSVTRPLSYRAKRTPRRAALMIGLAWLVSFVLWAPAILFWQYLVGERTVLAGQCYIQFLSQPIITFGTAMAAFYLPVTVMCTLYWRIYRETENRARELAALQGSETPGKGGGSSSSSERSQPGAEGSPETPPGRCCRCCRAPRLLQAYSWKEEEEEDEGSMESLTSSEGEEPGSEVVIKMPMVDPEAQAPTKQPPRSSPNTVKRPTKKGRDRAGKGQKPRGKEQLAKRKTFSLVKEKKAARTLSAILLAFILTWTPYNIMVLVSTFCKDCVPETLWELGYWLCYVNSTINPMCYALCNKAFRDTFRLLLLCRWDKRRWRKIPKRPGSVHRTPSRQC
# [2] = target: 5'-AMP-activated protein kinase catalytic subunit alpha-1 (Homo sapiens) (UniProt Q13131); conditions: Compound concentration 1000.0 nM
# [3] = target: Peripheral plasma membrane protein CASK (Homo sapiens) (UniProt O14936); conditions: Compound concentration 1000.0 nM
# [4] = target: Cyclin-dependent kinase 11B (Homo sapiens) (UniProt P21127); conditions: Compound concentration 1000.0 nM
# [5] = target: Cyclin-dependent kinase-like 5 (Homo sapiens) (UniProt O76039); conditions: Compound concentration 1000.0 nM
# [6] = target: Citron Rho-interacting kinase (Homo sapiens) (UniProt O14578); conditions: Compound concentration 1000.0 nM
# [7] = target: Macrophage colony-stimulating factor 1 receptor (Homo sapiens) (UniProt P07333); conditions: Compound concentration 1000.0 nM
# [8] = target: Megakaryocyte-associated tyrosine-protein kinase (Homo sapiens) (UniProt P42679); conditions: Compound concentration 1000.0 nM
# [9] = target: Death-associated protein kinase 1 (Homo sapiens) (UniProt P53355); conditions: Compound concentration 1000.0 nM
# [10] = target: Serine/threonine-protein kinase DCLK2 (Homo sapiens) (UniProt Q8N568); conditions: Compound concentration 1000.0 nM
# [11] = target: Dual specificity tyrosine-phosphorylation-regulated kinase 1A (Homo sapiens) (UniProt Q13627); conditions: Compound concentration 1000.0 nM
# [12] = tested on: Epidermal growth factor receptor (Homo sapiens), P00533 [L858R,T790M]; conditions: Compound concentration 1000.0 nM
# [13] = target: Eukaryotic translation initiation factor 2-alpha kinase 1 (Homo sapiens) (UniProt Q9BQI3); conditions: Compound concentration 1000.0 nM
# [14] = tested on: Fibroblast growth factor receptor 3 (Homo sapiens), P22607 [G697C]; conditions: Compound concentration 1000.0 nM
# [15] = tested on: Receptor-type tyrosine-protein kinase FLT3 (Homo sapiens), P36888 [D835Y]; conditions: Compound concentration 1000.0 nM
# [16] = target: Glycogen synthase kinase-3 beta (Homo sapiens) (UniProt P49841); conditions: Compound concentration 1000.0 nM
# [17] = target: Tyrosine-protein kinase JAK1 (Homo sapiens) (UniProt P23458); conditions: Compound concentration 1000.0 nM
# [18] = target: Mitogen-activated protein kinase kinase kinase 1 (Homo sapiens) (UniProt Q13233); conditions: Compound concentration 1000.0 nM
# [19] = target: Mitogen-activated protein kinase kinase kinase kinase 2 (Homo sapiens) (UniProt Q12851); conditions: Compound concentration 1000.0 nM
# [20] = target: Muscle, skeletal receptor tyrosine-protein kinase (Homo sapiens) (UniProt O15146); conditions: Compound concentration 1000.0 nM
# [21] = target: Myosin light chain kinase, smooth muscle (Homo sapiens) (UniProt Q15746); conditions: Compound concentration 1000.0 nM
# [22] = target: Serine/threonine-protein kinase Nek6 (Homo sapiens) (UniProt Q9HC98); conditions: Compound concentration 1000.0 nM
# [23] = target: Mitogen-activated protein kinase 14 (Homo sapiens) (UniProt Q16539); conditions: Compound concentration 1000.0 nM
# [24] = target: Serine/threonine-protein kinase PAK 2 (Homo sapiens) (UniProt Q13177); conditions: Compound concentration 1000.0 nM
# [25] = target: Phosphatidylinositol 3-kinase C2 domain-containing subunit gamma (Homo sapiens) (UniProt O75747); conditions: Compound concentration 1000.0 nM
# [26] = tested on: Phosphatidylinositol 4,5-bisphosphate 3-kinase catalytic subunit alpha isoform (Homo sapiens), P42336 [E542K]; conditions: Compound concentration 1000.0 nM
# [27] = tested on: Phosphatidylinositol 4,5-bisphosphate 3-kinase catalytic subunit alpha isoform (Homo sapiens), P42336 [M1043I]; conditions: Compound concentration 1000.0 nM
# [28] = target: Phosphatidylinositol 5-phosphate 4-kinase type-2 gamma (Homo sapiens) (UniProt Q8TBX8); conditions: Compound concentration 1000.0 nM
# [29] = target: Serine/threonine-protein kinase PLK4 (Homo sapiens) (UniProt O00444); conditions: Compound concentration 1000.0 nM
# [30] = target: Serine/threonine-protein kinase Sgk1 (Homo sapiens) (UniProt O00141); conditions: Compound concentration 1000.0 nM
# [31] = target: Serine/threonine-protein kinase Sgk2 (Homo sapiens) (UniProt Q9HBY8); conditions: Compound concentration 1000.0 nM
# [32] = target: Wee1-like protein kinase 2 (Homo sapiens) (UniProt P0C1S8); conditions: Compound concentration 1000.0 nM
# [33] = target: Serine/threonine-protein kinase WNK4 (Homo sapiens) (UniProt Q96J92); conditions: Compound concentration 1000.0 nM
# [34] = target: Serine/threonine-protein kinase 25 (Homo sapiens) (UniProt O00506); conditions: Compound concentration 1000.0 nM
# [35] = target: Mitogen-activated protein kinase kinase kinase 19 (Homo sapiens) (UniProt Q56UN5); conditions: Compound concentration 1000.0 nM
# [36] = target: 5-hydroxytryptamine receptor 1B (Homo sapiens) (UniProt P28222); conditions: Compound concentration 10.0 uM
# [37] = target: Delta-type opioid receptor (Homo sapiens) (UniProt P41143); conditions: Compound concentration 10.0 uM
# [38] = target: Alpha-1B adrenergic receptor (Homo sapiens) (UniProt P35368); conditions: Compound concentration 10.0 uM
# Sequence of Phosphatidylinositol 4,5-bisphosphate 3-kinase catalytic subunit alpha isoform (Homo sapiens), P42336 [E542K] (P42336 whole entry E542K, canonical isoform): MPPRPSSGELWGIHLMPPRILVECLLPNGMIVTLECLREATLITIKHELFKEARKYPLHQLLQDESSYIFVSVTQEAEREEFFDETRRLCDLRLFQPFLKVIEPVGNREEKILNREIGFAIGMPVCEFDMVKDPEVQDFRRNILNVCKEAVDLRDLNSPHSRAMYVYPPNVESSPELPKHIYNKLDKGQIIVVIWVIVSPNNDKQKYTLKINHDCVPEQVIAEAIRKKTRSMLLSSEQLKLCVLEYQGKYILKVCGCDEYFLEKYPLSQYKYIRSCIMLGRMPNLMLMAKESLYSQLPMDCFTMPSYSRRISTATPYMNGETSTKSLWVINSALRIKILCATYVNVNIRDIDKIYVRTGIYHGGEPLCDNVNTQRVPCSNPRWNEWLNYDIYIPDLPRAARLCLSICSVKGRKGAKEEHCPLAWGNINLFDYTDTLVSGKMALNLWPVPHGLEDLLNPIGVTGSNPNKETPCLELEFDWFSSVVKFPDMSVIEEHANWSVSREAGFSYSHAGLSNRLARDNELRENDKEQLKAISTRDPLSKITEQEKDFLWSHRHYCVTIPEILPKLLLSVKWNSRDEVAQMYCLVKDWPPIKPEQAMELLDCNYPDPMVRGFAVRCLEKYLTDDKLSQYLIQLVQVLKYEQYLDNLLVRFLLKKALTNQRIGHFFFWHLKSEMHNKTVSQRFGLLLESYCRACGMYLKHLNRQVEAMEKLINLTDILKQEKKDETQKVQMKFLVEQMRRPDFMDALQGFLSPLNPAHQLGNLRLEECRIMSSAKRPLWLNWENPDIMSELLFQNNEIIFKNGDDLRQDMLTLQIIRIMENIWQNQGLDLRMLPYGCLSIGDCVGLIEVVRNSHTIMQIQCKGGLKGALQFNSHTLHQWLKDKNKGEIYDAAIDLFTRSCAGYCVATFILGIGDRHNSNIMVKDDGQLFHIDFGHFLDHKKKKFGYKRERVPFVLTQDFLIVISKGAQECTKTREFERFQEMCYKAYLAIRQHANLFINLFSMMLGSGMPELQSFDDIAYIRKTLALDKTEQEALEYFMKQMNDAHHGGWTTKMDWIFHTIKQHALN
# Sequence of 5-hydroxytryptamine receptor 1B (Homo sapiens) (P28222 whole entry): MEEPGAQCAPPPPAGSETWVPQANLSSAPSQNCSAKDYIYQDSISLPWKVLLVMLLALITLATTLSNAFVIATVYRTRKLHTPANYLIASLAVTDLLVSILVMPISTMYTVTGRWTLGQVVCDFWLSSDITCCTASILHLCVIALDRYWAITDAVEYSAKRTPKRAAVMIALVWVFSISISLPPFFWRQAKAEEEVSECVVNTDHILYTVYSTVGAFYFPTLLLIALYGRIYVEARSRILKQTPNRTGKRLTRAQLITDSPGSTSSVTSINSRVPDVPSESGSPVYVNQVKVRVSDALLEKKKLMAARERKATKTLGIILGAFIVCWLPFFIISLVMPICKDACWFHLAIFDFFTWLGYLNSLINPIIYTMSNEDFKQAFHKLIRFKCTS
# Sequence of Serine/threonine-protein kinase 25 (Homo sapiens) (O00506 whole entry, looked up): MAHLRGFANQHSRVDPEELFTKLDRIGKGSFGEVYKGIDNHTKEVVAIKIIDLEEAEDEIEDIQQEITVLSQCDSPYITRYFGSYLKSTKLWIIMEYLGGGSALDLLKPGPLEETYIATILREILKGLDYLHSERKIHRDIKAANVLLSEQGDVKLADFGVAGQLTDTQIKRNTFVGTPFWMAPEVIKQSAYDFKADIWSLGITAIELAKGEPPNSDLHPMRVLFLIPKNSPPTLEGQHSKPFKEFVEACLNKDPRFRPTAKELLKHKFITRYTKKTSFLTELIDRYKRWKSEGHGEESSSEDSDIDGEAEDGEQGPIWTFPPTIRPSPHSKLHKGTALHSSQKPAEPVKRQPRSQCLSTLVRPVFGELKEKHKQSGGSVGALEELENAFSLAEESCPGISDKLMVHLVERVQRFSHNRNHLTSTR
# Sequence of Cyclin-dependent kinase-like 5 (Homo sapiens) (O76039 whole entry): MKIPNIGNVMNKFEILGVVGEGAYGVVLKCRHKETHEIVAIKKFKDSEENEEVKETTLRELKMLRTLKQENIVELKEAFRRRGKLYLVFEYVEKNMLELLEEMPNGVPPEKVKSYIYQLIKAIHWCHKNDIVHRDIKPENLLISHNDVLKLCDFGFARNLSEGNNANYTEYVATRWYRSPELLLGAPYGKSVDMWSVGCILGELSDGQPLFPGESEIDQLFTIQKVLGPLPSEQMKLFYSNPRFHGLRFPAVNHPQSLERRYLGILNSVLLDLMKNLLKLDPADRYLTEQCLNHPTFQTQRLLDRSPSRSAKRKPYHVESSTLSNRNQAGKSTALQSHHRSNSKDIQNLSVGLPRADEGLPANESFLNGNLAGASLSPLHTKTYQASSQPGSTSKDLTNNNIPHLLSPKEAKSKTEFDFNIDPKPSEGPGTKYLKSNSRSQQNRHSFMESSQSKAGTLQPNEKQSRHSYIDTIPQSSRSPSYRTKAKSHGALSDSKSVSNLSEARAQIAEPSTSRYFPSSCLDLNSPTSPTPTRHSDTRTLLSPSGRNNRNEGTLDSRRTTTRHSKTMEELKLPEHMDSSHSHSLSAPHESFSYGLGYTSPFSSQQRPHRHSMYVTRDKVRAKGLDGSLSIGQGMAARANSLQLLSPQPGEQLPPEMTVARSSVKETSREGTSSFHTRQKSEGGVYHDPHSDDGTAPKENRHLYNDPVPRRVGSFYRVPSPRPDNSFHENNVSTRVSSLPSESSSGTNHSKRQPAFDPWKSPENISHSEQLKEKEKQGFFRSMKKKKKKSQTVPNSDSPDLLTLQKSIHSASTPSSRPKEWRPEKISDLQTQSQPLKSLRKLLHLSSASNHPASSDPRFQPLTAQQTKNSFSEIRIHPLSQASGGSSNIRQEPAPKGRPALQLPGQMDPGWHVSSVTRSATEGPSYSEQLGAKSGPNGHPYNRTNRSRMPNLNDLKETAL
# Sequence of Serine/threonine-protein kinase WNK4 (Homo sapiens) (Q96J92 whole entry): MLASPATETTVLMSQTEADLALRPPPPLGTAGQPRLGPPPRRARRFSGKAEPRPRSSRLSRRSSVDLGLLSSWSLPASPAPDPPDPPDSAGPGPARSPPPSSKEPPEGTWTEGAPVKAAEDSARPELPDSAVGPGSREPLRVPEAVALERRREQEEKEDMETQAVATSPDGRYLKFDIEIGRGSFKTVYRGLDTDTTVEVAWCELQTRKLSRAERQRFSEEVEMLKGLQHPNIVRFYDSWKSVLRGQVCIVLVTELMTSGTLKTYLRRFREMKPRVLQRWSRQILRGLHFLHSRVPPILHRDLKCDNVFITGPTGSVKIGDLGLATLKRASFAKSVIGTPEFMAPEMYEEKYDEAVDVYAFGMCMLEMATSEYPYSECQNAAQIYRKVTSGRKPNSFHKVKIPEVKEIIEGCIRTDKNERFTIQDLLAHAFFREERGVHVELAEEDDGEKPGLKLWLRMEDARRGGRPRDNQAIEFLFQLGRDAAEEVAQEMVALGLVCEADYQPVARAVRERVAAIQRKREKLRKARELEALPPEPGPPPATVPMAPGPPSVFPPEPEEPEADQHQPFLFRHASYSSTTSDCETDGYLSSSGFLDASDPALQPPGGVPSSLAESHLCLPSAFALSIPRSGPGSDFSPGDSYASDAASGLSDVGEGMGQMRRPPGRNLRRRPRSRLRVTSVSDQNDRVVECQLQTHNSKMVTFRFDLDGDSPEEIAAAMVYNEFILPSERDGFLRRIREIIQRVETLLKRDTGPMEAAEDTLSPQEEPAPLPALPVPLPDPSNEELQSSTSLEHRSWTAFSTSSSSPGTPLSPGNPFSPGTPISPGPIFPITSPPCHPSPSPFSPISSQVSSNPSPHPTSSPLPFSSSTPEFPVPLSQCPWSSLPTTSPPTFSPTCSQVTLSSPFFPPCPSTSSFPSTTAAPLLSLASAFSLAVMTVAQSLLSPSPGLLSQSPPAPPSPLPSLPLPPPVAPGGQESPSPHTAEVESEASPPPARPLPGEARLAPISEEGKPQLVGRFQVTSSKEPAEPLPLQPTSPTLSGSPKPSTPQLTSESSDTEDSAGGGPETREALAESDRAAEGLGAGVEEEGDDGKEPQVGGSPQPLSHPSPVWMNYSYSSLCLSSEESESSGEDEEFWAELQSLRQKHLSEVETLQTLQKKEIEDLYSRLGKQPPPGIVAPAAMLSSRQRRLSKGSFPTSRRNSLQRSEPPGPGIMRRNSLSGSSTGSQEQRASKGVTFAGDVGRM
# Sequence of Serine/threonine-protein kinase DCLK2 (Homo sapiens) (Q8N568 whole entry): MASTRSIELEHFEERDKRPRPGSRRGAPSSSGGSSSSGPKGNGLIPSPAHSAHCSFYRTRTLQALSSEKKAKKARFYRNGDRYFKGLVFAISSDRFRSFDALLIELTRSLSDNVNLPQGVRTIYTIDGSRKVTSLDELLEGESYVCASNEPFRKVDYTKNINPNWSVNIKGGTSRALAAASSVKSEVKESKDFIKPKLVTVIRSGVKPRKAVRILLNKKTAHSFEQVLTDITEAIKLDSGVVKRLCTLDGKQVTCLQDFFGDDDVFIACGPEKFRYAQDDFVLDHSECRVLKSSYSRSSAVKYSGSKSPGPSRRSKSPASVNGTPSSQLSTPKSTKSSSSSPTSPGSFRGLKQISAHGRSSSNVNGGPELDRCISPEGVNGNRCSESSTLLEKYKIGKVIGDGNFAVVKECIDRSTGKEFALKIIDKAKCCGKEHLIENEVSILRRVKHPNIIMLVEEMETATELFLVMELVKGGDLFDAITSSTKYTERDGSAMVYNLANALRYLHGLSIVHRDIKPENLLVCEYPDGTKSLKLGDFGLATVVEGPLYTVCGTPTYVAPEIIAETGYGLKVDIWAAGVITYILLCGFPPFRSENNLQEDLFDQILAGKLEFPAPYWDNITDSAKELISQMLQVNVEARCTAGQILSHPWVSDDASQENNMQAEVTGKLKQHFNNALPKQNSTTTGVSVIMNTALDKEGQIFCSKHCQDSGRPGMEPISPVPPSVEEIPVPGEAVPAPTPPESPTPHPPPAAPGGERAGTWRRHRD
# Sequence of Phosphatidylinositol 4,5-bisphosphate 3-kinase catalytic subunit alpha isoform (Homo sapiens), P42336 [M1043I] (P42336 whole entry M1043I, canonical isoform): as the sequence (P42336 whole entry E542K, canonical isoform) above, with K542E, M1043I counted along it
Compound,% Inhibition of Control Agonist Response (Mean n=2) [1],% of Control Agonist Response (Mean n=2) [1],residual activity [2],residual activity [3],residual activity [4],residual activity [5],residual activity [6],residual activity [7],residual activity [8],residual activity [9],residual activity [10],residual activity [11],residual activity [12],residual activity [13],residual activity [14],residual activity [15],residual activity [16],residual activity [17],residual activity [18],residual activity [19],other results
O=C(N1CCS(=O)(=O)CC1)N1C[C@H](c2ccc(OC(F)(F)F)cc2)C[C@H](c2nc(C3CC3)no2)C1 [BAY-386],57%,12.8%,100%,100%,100%,100%,100%,100%,100%,92%,0%,100%,59%,90%,100%,100%,100%,88%,100%,94%,residual activity [20]: 100%; residual activity [21]: 100%; residual activity [22]: 98%; residual activity [23]: 100%; residual activity [24]: 90%; residual activity [25]: 93%; residual activity [26]: 88%; residual activity [27]: 100%; residual activity [28]: 96%; residual activity [29]: 100%; residual activity [30]: 91%; residual activity [31]: 76%; residual activity [32]: 100%; residual activity [33]: 100%; residual activity [34]: 93%; residual activity [35]: 58%; inhibition [36]: 30.8%; inhibition [37]: -2.63%; inhibition [38]: 14.2%
Cc1noc([C@H]2C[C@@H](c3ccc(C(F)(F)F)cc3)CN(C(=O)N3CCS(=O)(=O)C3)C2)n1 [BAY-448],10.2%,1.2%,100%,93%,100%,100%,98%,100%,100%,100%,100%,100%,96%,100%,84%,100%,92%,98%,100%,100%,residual activity [20]: 100%; residual activity [21]: 87%; residual activity [22]: 100%; residual activity [23]: 79%; residual activity [24]: 87%; residual activity [25]: 90%; residual activity [26]: 71%; residual activity [27]: 100%; residual activity [28]: 89%; residual activity [29]: 88%; residual activity [30]: 100%; residual activity [31]: 100%; residual activity [32]: 100%; residual activity [33]: 100%; residual activity [34]: 89%; residual activity [35]: 77%; inhibition [36]: 4.16%; inhibition [37]: -0.62%; inhibition [38]: -1.18%
